{
  "source": "patent US10030103B2",
  "about": "“Stable helical ionic polypeptides” (The Board of Trustees of the University of Illinois, priority 2010, dated 2018)",
  "key": {"[1]": {"test": "Circular dichroism (CD) analysis of polypeptide conformation in aqueous solution", "format": "physicochemical", "procedure": "CD measurements were carried out on a JASCO J-700 CD spectrometer in a quartz disc with a light path length of 1 cm at 0.01-0.1 mg/mL in DI water at room temperature or under conditions otherwise indicated.\nThe CD study was performed on a JASCO J-700 or on a J-720 CD spectrometer. Polymer samples were prepared at concentrations of 0.01-0.1 mg/mL at pH 3 unless otherwise specified. The solution was placed in a quartz cell with light path of 0.2 cm. The mean residue molar ellipticity of each polymer was calculated based on the measured apparent ellipticity, the molar concentration of polymer and the m.w. of the repeating unit. The CD experiments were carried out at room temperature unless otherwise specified. For temperature-dependency study, the temperature of the sample chamber which hosts the quartz cell was controlled by a water bath (from 4° C. to 70° C.).\nThe samples were equilibrated at corresponding temperature for at least 10 min before the CD measurements. For the sample preparations, the polymers were dissolved in DI water or in a solution containing NaCl, urea or methanesulfonic acid (MSA). For the pH-dependency study, the pH of the polymer solution was tuned by the addition of a concentrated HCl or NaOH solution.\nThe CD study was performed on a JASCO J-700 and J-720 CD spectrometer. Polymer samples were prepared at a concentration of 0.05 mg/mL in general unless otherwise specified. The solution was placed in a quartz disc with light path of 0.5 cm. Mean residue molar ellipticity was calculated based on the ellipticity obtained, concentration of polymer and the molar weight of the repeating unit.\nThe CD study was performed on a JASCO J-700 and J-720 CD spectrometer. The polymer samples were prepared at concentrations of 0.01-0.1 mg/mL in general unless otherwise specified. The solution was placed in a quartz cell with a path length of 0.5 cm. […] For the helix-temperature dependency study, the temperature of the sample chamber where the quartz cell was placed was controlled by a water bath (from 4° C. to 70° C.). […]"}, "COS-7 cells": {"system": "COS-7 cells", "test": "In vitro transfection of COS-7 cells with polymer/DNA complexes (pCMV-Luc, luciferase expression)", "format": "cell-based", "settings": "listed as PVBLG40-1", "method": "DNA/polymer complexes were prepared at room temperature by dissolving DNA (0.35 μg) in 150 mM NaCl, 20 mM HEPES (175 μL). An equal volume of 25-kDa branched PEI, lipofectamine 2000 or PVBLGn-X in 150 mM NaCl, 20 mM HEPES was added to achieve the desired weight ratio. The final complexes were incubated at room temperature for 15 min before further use. […] The transfection medium was replaced with fresh serum-supplemented growth medium 4 h post-transfection.\nLuciferase expression was quantified 24 h post-transfection using the Promega Bright-Glo luciferase assay system (Promega, Madison, Wis.). Luciferase activity was measured in relative light units (RLU) using a PerkinElmer plate reader with luminescence capabilities (Waltham, Mass.). Results were normalized to total cell protein using the Pierce BCA protein assay kit (Rockford, Ill.). Transfections were performed in triplicate."}, "DHSα E. coli": {"system": "DHSα E. coli", "test": "Inhibition of bacterial growth in Luria broth (OD650)", "format": "cell-based", "settings": "up to 100 μg/mL, seven hours, 37° C.", "method": "Luria broth (1×) was prepared containing known concentrations of the three polymers between 0 μg/mL and 100 μg/mL and dispensed (200 μL aliquots) in triplicate into the wells of a clear polystyrene 96-well plate. Separate wells containing the antibiotic kanamycin at 50 μg/mL were also prepared as a control. The wells were then inoculated with DHSα E. coli and left to grow at 37° C. with agitation. After seven hours, the plate was removed and the absorbance of 650 nm light was measured for each well (OD650). In general, as bacterial growth was inhibited, the resulting OD650 decreased. The average OD650 was then plotted for each sample (FIG. 50)."}},
  "data": [
    {"substance": "Poly(γ-(4-aminoethylthiopropoxyl)-benzyl-L-glutamate) [(PAOBLG-AET)10]", "values": [
      {"measurement": "pH dependence of −[θ]222 / helical conformation", "setting": "[1]; pH range as stated in the value", "result": "remained unchanged when the solution's pH was increased from 1 to 8"}
    ]},
    {"substance": "poly(L-lysine) [PLL75]", "values": [
      {"measurement": "conformation by CD", "setting": "[1]; aqueous solution, pH 1", "result": "completely random coil conformation"}
    ]},
    {"substance": "poly(γ-(4-(1-hexanol-6-aminomethyl))benzyl-L-glutamate) [(PVBLG-1)40]", "values": [
      {"measurement": "transfection efficiency", "setting": "COS-7 cells", "result": "on par with 25-kDa branched polyethylenimine (PEI)"}
    ]},
    {"substance": "poly(γ-(4-(1-hexanol-6-aminomethyl))benzyl-L-glutamate) [PVBLG-1]", "values": [
      {"measurement": "antimicrobial properties", "setting": "DHSα E. coli", "result": "Neither PVBLGn-1 nor PVBLGn-8 displayed antimicrobial properties"}
    ]},
    {"substance": "poly-L-lysine [(PLL)60]", "values": [
      {"measurement": "Helical content", "setting": "[1]; Table 9-2, (−[θ]222 + 3000)/39,000", "result": 0, "unit": "%"}
    ]}
  ]
}
